Assays:
[1] = system: PC-3; assay: Cytotoxicity against human PC-3 cells assessed as reduction in cell viability measured after 72 hrs by MTT assay; type: functional, cell-based; conditions: PC-3, 72 h
[2] = Cytotoxicity against human WI-38 cells assessed as reduction in cell viability measured after 72 hrs by MTT assay; type: toxicity, cell-based
[3] = system: PC-3; assay: Induction of apoptosis in human PC-3 cells assessed as viable cells at 15 uM measured after 72 hrs by Annexin V-FITC/propidium iodide staining based FACS analysis (reference value: 97.62%); type: functional; conditions: read-out: Activity
[4] = system: PC-3; assay: Induction of apoptosis in human PC-3 cells assessed as early apoptotic cells at 15 uM measured after 72 hrs by Annexin V-FITC/propidium iodide staining based FACS analysis (reference value: 0.54%); type: functional
[5] = system: PC-3; assay: Induction of apoptosis in human PC-3 cells assessed as late apoptotic cells at 15 uM measured after 72 hrs by Annexin V-FITC/propidium iodide staining based FACS analysis (reference value: 1.73%); type: functional
[6] = system: PC-3; assay: Induction of apoptosis in human PC-3 cells assessed as necrotic cells at 15 uM measured after 72 hrs by Annexin V-FITC/propidium iodide staining based FACS analysis (reference value: 0.11%); type: functional
[7] = system: PC-3; assay: Cytotoxicity against human PC-3 cells assessed as cell growth inhibition at 10 uM measured after 72 hrs by MTT assay relative to control; type: functional; conditions: read-out: GI
[8] = system: PC-3; assay: Cytotoxicity against human PC-3 cells assessed as cell growth inhibition at 5 uM measured after 72 hrs by MTT assay relative to control; type: functional; conditions: read-out: GI
[9] = system: PC-3; assay: Synergistic anticancer activity against human PC-3 cells assessed as cell growth inhibition at 20 uM measured after 72 hrs in presence of 0.00001 uM of topotecan by MTT assay relative to control; type: functional; conditions: read-out: GI
[10] = system: PC-3; assay: Synergistic anticancer activity against human PC-3 cells assessed as cell growth inhibition at 20 uM measured after 72 hrs in presence of 0.001 uM of topotecan by MTT assay relative to control; type: functional; conditions: read-out: GI
[11] = system: PC-3; assay: Synergistic anticancer activity against human PC-3 cells assessed as cell growth inhibition at 20 uM measured after 72 hrs in presence of 0.01 uM of topotecan by MTT assay relative to control; type: functional; conditions: read-out: GI
[12] = system: PC-3; assay: Synergistic anticancer activity against human PC-3 cells assessed as cell growth inhibition at 20 uM measured after 72 hrs in presence of 0.1 uM of topotecan by MTT assay relative to control; type: functional; conditions: read-out: GI
[13] = system: PC-3; assay: Synergistic anticancer activity against human PC-3 cells assessed as cell growth inhibition at 10 uM measured after 72 hrs in presence of 10 uM of topotecan by MTT assay relative to control; type: functional; conditions: read-out: GI
[14] = system: PC-3; assay: Synergistic anticancer activity against human PC-3 cells assessed as cell growth inhibition at 5 uM measured after 72 hrs in presence of 0.0001 uM of topotecan by MTT assay relative to control; type: functional; conditions: read-out: GI
[15] = system: PC-3; assay: Synergistic anticancer activity against human PC-3 cells assessed as cell growth inhibition at 5 uM measured after 72 hrs in presence of 0.001 uM of topotecan by MTT assay relative to control; type: functional; conditions: read-out: GI
[16] = system: PC-3; assay: Synergistic anticancer activity against human PC-3 cells assessed as cell growth inhibition at 5 uM measured after 72 hrs in presence of 1 uM of topotecan by MTT assay relative to control; type: functional; conditions: read-out: GI
[17] = Synergistic anticancer activity against mouse RCaP cells assessed as cell growth inhibition at 20 uM measured after 72 hrs in presence of 0.0001 uM of topotecan by MTT assay relative to control; type: functional; conditions: read-out: GI
[18] = Synergistic anticancer activity against mouse RCaP cells assessed as cell growth inhibition at 20 uM measured after 72 hrs in presence of 0.01 uM of topotecan by MTT assay relative to control; type: functional; conditions: read-out: GI
[19] = Synergistic anticancer activity against mouse RCaP cells assessed as cell growth inhibition at 10 uM measured after 72 hrs in presence of 0.01 uM of topotecan by MTT assay relative to control; type: functional; conditions: read-out: GI
[20] = Synergistic anticancer activity against mouse RCaP cells assessed as cell growth inhibition at 10 uM measured after 72 hrs in presence of 1 uM of topotecan by MTT assay relative to control; type: functional; conditions: read-out: GI
[21] = Synergistic anticancer activity against mouse RCaP cells assessed as cell growth inhibition at 5 uM measured after 72 hrs in presence of 0.00001 uM of topotecan by MTT assay relative to control; type: functional; conditions: read-out: GI
[22] = Synergistic anticancer activity against mouse RCaP cells assessed as cell growth inhibition at 5 uM measured after 72 hrs in presence of 0.0001 uM of topotecan by MTT assay relative to control; type: functional; conditions: read-out: GI
[23] = Synergistic anticancer activity against mouse RCaP cells assessed as cell growth inhibition at 5 uM measured after 72 hrs in presence of 0.001 uM of topotecan by MTT assay relative to control; type: functional; conditions: read-out: GI
[24] = Synergistic anticancer activity against mouse RCaP cells assessed as cell growth inhibition at 5 uM measured after 72 hrs in presence of 0.1 uM of topotecan by MTT assay relative to control; type: functional; conditions: read-out: GI
[25] = Synergistic anticancer activity against mouse RCaP cells assessed as cell growth inhibition at 5 uM measured after 72 hrs in presence of 1 uM of topotecan by MTT assay relative to control; type: functional; conditions: read-out: GI
[26] = Synergistic anticancer activity against mouse RCaP cells assessed as cell growth inhibition at […] measured after 72 hrs in presence of 0.01 uM of topotecan by MTT assay relative to control; type: functional; conditions: dose 2.5 µM, read-out: GI
[27] = Synergistic anticancer activity against mouse RCaP cells assessed as cell growth inhibition at […] measured after 72 hrs in presence of 10 uM of topotecan by MTT assay relative to control; type: functional; conditions: dose 2.5 µM, read-out: GI
[28] = Cytotoxicity against mouse RCap cells assessed as reduction in cell viability measured after 72 hrs by MTT assay; type: functional, cell-based
[29] = Binding affinity to FABP5 (unknown origin); set-up: species or system Homo sapiens
[30] = system: PC-3; assay: Synergistic anticancer activity against human PC-3 cells assessed as cell growth inhibition at 1.25 uM measured after 72 hrs in presence of 10 uM of topotecan by MTT assay relative to control; type: functional; conditions: read-out: GI
[31] = system: PC-3; assay: Synergistic anticancer activity against human PC-3 cells assessed as cell growth inhibition at 0.625 uM measured after 72 hrs in presence of 0.00001 uM of topotecan by MTT assay relative to control; type: functional; conditions: read-out: GI
[32] = system: PC-3; assay: Synergistic anticancer activity against human PC-3 cells assessed as cell growth inhibition at 0.625 uM measured after 72 hrs in presence of 0.1 uM of topotecan by MTT assay relative to control; type: functional; conditions: read-out: GI
[33] = Synergistic anticancer activity against mouse RCaP cells assessed as cell growth inhibition at 1.25 uM measured after 72 hrs in presence of 0.0001 uM of topotecan by MTT assay relative to control; type: functional; conditions: read-out: GI
[34] = Synergistic anticancer activity against mouse RCaP cells assessed as cell growth inhibition at 1.25 uM measured after 72 hrs in presence of 0.01 uM of topotecan by MTT assay relative to control; type: functional; conditions: read-out: GI
[35] = Synergistic anticancer activity against mouse RCaP cells assessed as cell growth inhibition at 1.25 uM measured after 72 hrs in presence of 10 uM of topotecan by MTT assay relative to control; type: functional; conditions: read-out: GI

SMILES	IC50 [1]	IC50 at 72 h [2]	inhibition of growth at 10 µM [7]	inhibition of growth at 5 µM [8]	inhibition of growth at 20 µM [9]	inhibition of growth at 20 µM [10]	inhibition of growth at 20 µM [11]	inhibition of growth at 20 µM [12]	inhibition of growth at 10 µM [13]	inhibition of growth at 5 µM [14]	inhibition of growth at 5 µM [15]	inhibition of growth at 5 µM [16]	inhibition of growth at 20 µM [17]	inhibition of growth at 20 µM [18]	inhibition of growth at 10 µM [19]	inhibition of growth at 10 µM [20]	inhibition of growth at 5 µM [21]	inhibition of growth at 5 µM [22]	inhibition of growth at 5 µM [23]	inhibition of growth at 5 µM [24]	further results
COc1ccccc1[C@H]1[C@H](C(=O)O)[C@H](c2ccccc2OC)[C@H]1C(=O)OCC1c2ccccc2-c2ccccc21	10.5 µM	23 µM	30.1%	7.5%	99.3%	99.8%	99.8%	99.8%	86.2%	27.5%	28.7%	81%	97.5%	98.2%	75.2%	98.3%	9.57%	17.6%	32.3%	93.6%	viability at 15 µM [3]: 88.7%; Activity [4]: 5.38%; Activity [5]: 5.63%; Activity [6]: 0.3%; inhibition of growth at 5 µM [25]: 99%; inhibition of growth at […] [26]: 11.7%; inhibition of growth at […] [27]: 99.6%
O=C(O)[C@H]1[C@H](c2ccccc2)[C@H](C(=O)Oc2cc(-c3ccc4c(c3)OCO4)ccc2-c2ccccc2)[C@H]1c1ccccc1	9.89 µM	19.5 µM	57.5%	28.4%	98.1%	98.4%	98.2%	98.5%	90.8%	30.9%	29.1%	72.2%	96.7%	97.8%	71.7%	96%	27%	24.6%	28.3%	87.2%	IC50 [28]: 12.3 µM; Ki [29]: 660 nM; inhibition of growth at 5 µM [25]: 97.9%; inhibition of growth at […] [26]: 12.2%; inhibition of growth at […] [27]: 99.9%
COc1ccccc1[C@H]1[C@H](C(=O)O)[C@H](c2ccccc2OC)[C@H]1C(=O)Oc1cc(-c2ccc3c(c2)OCO3)ccc1-c1ccccc1	6.52 µM	10.8 µM	66.4%	30.7%	99.7%	99.4%	98.7%	99%	92.2%	44.1%	43.5%	89.8%	100%	100%	87.8%	94.8%	27.6%	26.8%	36.1%	91.9%	IC50 [28]: 3.44 µM; Ki [29]: 650 nM; viability at 15 µM [3]: 25.8%; Activity [4]: 20.86%; Activity [5]: 52.11%; Activity [6]: 1.25%; inhibition of growth at 1.25 µM [30]: 93.4%; inhibition of growth at 0.625 µM [31]: 1.6%; inhibition of growth at 0.625 µM [32]: 69.4%; inhibition of growth at 5 µM [25]: 97.9%; inhibition of growth at […] [26]: 20.6%; inhibition of growth at […] [27]: 98.9%; inhibition of growth at 1.25 µM [33]: -1.6%; inhibition of growth at 1.25 µM [34]: 8.37%; inhibition of growth at 1.25 µM [35]: 99.2%

— ChEMBL document CHEMBL6109109, “Fatty acid binding protein 5 inhibitors as novel anticancer agents against metastatic castration-resistant prostate cancer” (Bioorg Med Chem, 2025)
